Consider one compound from patent publication US9173875B2, “Treatment for nicotine-induced lung disease using peroxisome proliferator-activated receptor gamma agonists” (Los Angeles Biomedical Research Institute at Harbor-UCLA …, priority 2006, dated 2015).

Assay [1] concerns WI38 cells. The experiment in a line: Western blot of lipogenic and myogenic marker proteins in WI38 cells (nicotine with or without lipogenic pathway agonists). Format: cell-based, human. The following applies: nicotine 1×10^−9, 7 days. On the procedure:
The human embryonic cell line WI38 was obtained from American Type Culture Collection (Rockville, Md.). Cells were grown in MEM plus 10% FBS at 37° C. in six-well plates, four-well slides, and 60- and 100-mm culture dishes as needed.
Western blotting was performed with modifications of methods described previously (Ayad and Wong (1998) Crit. Care Med 26: 1277-1282). […] Equal amounts of the protein (25 μg) from the supernatant were dissolved in electrophoresis sample buffer and were subjected to SDS-PAGE (4-12% gradient) followed by electrophoretic transfer to a nitrocellulose membrane. Nonspecific binding of antibody was blocked by washing with Tris-buffered saline (TBS) containing 5% milk for 1 h. The blot was then subjected to two brief washes with TBS plus 0.5% Tween 20, incubated in TBS plus 0.1% Tween 20 and the specific primary antibodies (PPAR 1:2,000, Alexis Biochemicals, San Diego, Calif.; -SMA 1:50,000, Sigma; ADRP 1:3,000, a kind gift from Dr. Constantine Londos, National Institute of Diabetes and Digestive and Kidney Diseases) overnight at 4° C. Blots were then washed in TBS plus 0.1% Tween 20 and then incubated for 1 h in secondary antibody, washed, and developed with a chemiluminescent substrate (ECL; Amersham, Arlington Heights, Ill.) following the manufacturer's protocol.

A further assay concerns fetal ATII cells. Kind of assay: Ex vivo ATII cell proliferation assay (tetrazolium dye) after in utero nicotine. Set-up: species or system Sprague-Dawley rat. The following applies: nicotine 1 mg/kg in utero; vs control, P<0.05, n=6. On the procedure: Pathogen-free timed (embryonic day 0=day of mating) pregnant Sprague-Dawley rats (200-250 g body wt) were obtained from Charles River (Hollister, Calif.) at embryonic day 3 and allowed to acclimatize until embryonic day 6. […] The fetuses were extracted by cesarean section, and the lungs were snap frozen for later analysis or processed for ATII cell or fibroblast culture. […] Louis, Mo.; 0.25 mg/kg). All studies were approved by the Los Angeles Biomedical Research Institute Institutional Review Board and were conducted in accordance with the National Institutes of Health Guide for the Care and Use of Laboratory Animals. ATII cells were isolated using differential adherence in monolayer culture, as described previously (Battenburg et al. (1990) Biochim. Biophys. Acta 960: 441-456). Briefly, three to five […] used per preparation. The fetuses were delivered via cesarean section, and fetal lungs were placed in Hanks' balanced salt solution without calcium and magnesium. […] A Teflon stirring bar was used to further dissociate the lungs by mechanical disruption of the tissue during incubation in a 37° C. water bath. After the tissue was dispersed into a unicellular suspension, the cells were pelleted at 500 g for 10 min at room temperature in a 50-ml polystyrene centrifuge tube. […] The cell suspension was then added to 75-cm^2 (T-75) culture flasks for 30-60 min to allow for differential adherence of lung fibroblasts. The unattached cells were then transferred to another T-75 culture flask for an additional 60 min. After this second culture period, the medium and nonadherent cells were removed from the flask and diluted with 1 vol of culture medium. This diluted suspension was cultured overnight in a T-75 culture flask at 37° C. in a CO2 incubator to allow the ATII cells to adhere. […] According to the manufacturer's protocol, cell proliferation was determined by the tetrazolium dye assay, which is based on the conversion of a tetrazolium salt to a red formazan product by living cells (Cell Proliferation Assay, Promega).

The subject of assay [2] is ATII cells. Kind of assay: Western analysis of CCT-α and SP-B in ATII cells after in utero nicotine. It counts as in vivo, Sprague-Dawley rat. On the procedure:
Pathogen-free timed (embryonic day 0=day of mating) pregnant Sprague-Dawley rats (200-250 g body wt) were obtained from Charles River (Hollister, Calif.) at embryonic day 3 and allowed to acclimatize until embryonic day 6. […] The fetuses were extracted by cesarean section, and the lungs were snap frozen for later analysis or processed for ATII cell or fibroblast culture. […] Louis, Mo.; 0.25 mg/kg). All studies were approved by the Los Angeles Biomedical Research Institute Institutional Review Board and were conducted in accordance with the National Institutes of Health Guide for the Care and Use of Laboratory Animals. Protein extraction and Western blot analysis for SP-B and choline phosphate cytidylyltransferase-α (CCT-α) were performed using standard methods. […] Chemicon) overnight at 4° C. The antibody for CCT-α (1:2,000 dilution) was a kind gift from Dr. […] (University of Iowa, Iowa City, Iowa). […] The density of the SP-B and CCT-α bands was quantified using a scanning densitometer (Eagle Eye, Stratagene).

Assay [3] has as its system ATII cells. Kind of assay: Western analysis of CCT-α and SP-B in ATII cells treated in vitro. Format: cell-based, rat. On the procedure:
Protein extraction and Western blot analysis for SP-B and choline phosphate cytidylyltransferase-α (CCT-α) were performed using standard methods. […] Equal amounts of the protein from the supernatant were dissolved in electrophoresis sample buffer and subjected to SDS-polyacrylamide (4-12% gradient) gel electrophoresis followed by electrophoretic transfer to a nitrocellulose membrane. The membrane was blocked with 5% milk in 1× Tris-buffered saline containing 0.1% Tween 20 for 1 h and then incubated with rabbit anti-human SP-B polyclonal antibody (1:1,000 dilution; Chemicon) overnight at 4° C. The antibody for CCT-α (1:2,000 dilution) was a kind gift from Dr. Mallampalli (University of Iowa, Iowa City, Iowa). Subsequently, the membrane was washed with 1× Tris-buffered saline+0.1% Tween 20 and incubated with a 1:3,000 dilution of anti-rabbit horseradish peroxidase-linked whole antibody immunoglobulin G (Amersham, Arlington Heights, Ill.) for 1 h at room temperature, washed again, and developed with a chemiluminescent substrate (ECL, Amersham) following the manufacturer's protocol. The density of the SP-B and CCT-α bands was quantified using a scanning densitometer (Eagle Eye, Stratagene).

For assay [4], the system named is WI38 cells.

For `CN1CCCC1c1cccnc1` (stereo not shown) [nicotine], in the assay on WI38 cells [1], the “change in ADRP protein level” value is −20±3%, the “change in PPAR protein level” value is on record as −24±2%, the “change in PTHrP receptor protein level” value is recorded as −31±7% and the “change in α-SMA protein level” value is given as “+100±5%”. In addition, the “ATII cell proliferation, tetrazolium dye assay” value in the assay on fetal ATII cells was “almost twofold increase”. For the same compound, in the assay with ATII cells [2] (in utero nicotine, P<0.05, n=3), the “steady-state SP-B protein level” value is on record as “significantly increased”. The CCT-α protein expression result in the assay on ATII cells [2] (in vivo nicotine exposure) is “significant increase”. The SP-B expression entry in the assay with ATII cells [3] (direct nicotine treatment of cultured ATII cells) was “significant increase”. The CCT-α protein expression entry in the assay with ATII cells [3] (in vitro nicotine exposure) is “significant increase”. For the same compound, in the assay with WI38 cells [4], the “expression of nACh receptors α3 and α7” value was “significant increases”.
